Data as given in patent publication US20160346249A1 (priority 2012, published 2016).
Marks after values point to notes of the source that are not given here.

Tests used:
human recombinant MAO-A = target: T1, human recombinant MAO-A (Homo sapiens, UniProt P21397); experiment: Metabolism by recombinant MAO-A; type: in vitro ADME
T1 construct: purchased BD Biosciences, Woburn, Mass
T1 sequence (P21397 1-527): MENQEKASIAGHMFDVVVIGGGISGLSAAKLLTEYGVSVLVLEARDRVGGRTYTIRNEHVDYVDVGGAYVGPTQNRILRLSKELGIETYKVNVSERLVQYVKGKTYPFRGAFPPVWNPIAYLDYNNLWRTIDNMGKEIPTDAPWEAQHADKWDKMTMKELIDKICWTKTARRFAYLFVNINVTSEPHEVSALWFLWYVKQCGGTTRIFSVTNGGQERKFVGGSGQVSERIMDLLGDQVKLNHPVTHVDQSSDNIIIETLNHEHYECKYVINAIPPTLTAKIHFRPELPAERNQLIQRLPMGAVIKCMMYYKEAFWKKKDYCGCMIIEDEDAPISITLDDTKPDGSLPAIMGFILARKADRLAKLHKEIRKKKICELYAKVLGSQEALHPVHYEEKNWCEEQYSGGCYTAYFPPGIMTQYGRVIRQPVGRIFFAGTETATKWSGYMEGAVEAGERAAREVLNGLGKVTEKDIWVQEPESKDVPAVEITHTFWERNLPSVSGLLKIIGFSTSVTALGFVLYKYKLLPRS
Description: Incubation systems (ca. 0.2 mL) of human recombinant MAO-A (1.0 mg/mL) and MAO-B (1.0 mg/mL) (BD Biosciences, Woburn, Mass.) were prepared in triplicated 0.1 M potassium phosphate buffer (pH 7.4) (BD Biosciences, Woburn, Mass.). […] The negative samples were prepared as described above, with the exception that instead of HLM, HLmito, or recombinant enzymes, water was added to the incubation mixture.

[1] = 2-week dog toxicity and toxicokinetic study; type: in vivo
Description: Blood samples were collected on Day 0 and Day 13 of the study from up to 2 animals/gender/group.
Clinical pathology evaluations (hematology and serum chemistry) were performed prior to the initiation of treatment (Week −1) and just prior to the scheduled necropsy. At termination, necropsies were conducted and selected organs were weighed. Selected tissues were examined microscopically for animals in the control and high-dose groups.

[2] = tested on: Salmonella typhimurium and Escherichia coli tester strains; experiment: Bacterial reverse mutation assay (Ames); type: cell-based; conditions: up to 5000 μg/plate, with and without S9
[3] = Single-dose intravenous rat toxicology study; conditions: Crl:CD(SD)IGS BR, in vivo
Description: Clinical observations, body weights, and food consumption were noted periodically. All animals were euthanized following a minimum 13-day non-dosing (recovery) period. Clinical pathology evaluations (hematology and serum chemistry) were performed on all rats at the time of necropsy and selected organs were weighed. No microscopic examinations were performed.

[4] = Rat developmental toxicity study with toxicokinetics; type: in vivo; conditions: for AUC(0-t) / Cmax / Tmax: female, Crl:CD(SD)IGS BR, rat, in vivo, pregnant rats; for AUC(0-t): read-out: AUC0-24
Source text: For the toxicology assessment, there were twenty-five mated females/group.
Females that delivered early were necropsied on the day of delivery. […] The fetuses were weighed, sexed, and examined for external, visceral, and skeletal malformations and developmental variations.

[5] = Rabbit pilot developmental toxicity study; type: in vivo; conditions: 30 mg/kg/day, GD 14
Description: On GD 29, a laparohysterectomy was performed on each surviving female.

[6] = female, beagle, in vivo, po, 5 mg/kg/day, females, 5 mg/kg/day, Day 0
[7] = female, beagle, in vivo, po, 5 mg/kg/day, females, 5 mg/kg/day, Day 13
[8] = female, beagle, in vivo, po, 10 mg/kg/day, females, 10 mg/kg/day, Day 0
[9] = female, beagle, in vivo, po, 10 mg/kg/day, females, 10 mg/kg/day, Day 13
[10] = female, beagle, in vivo, po, 20 mg/kg/day, females, 20 mg/kg/day, Day 0
[11] = male, beagle, in vivo, po, 5 mg/kg/day, males, 5 mg/kg/day, Day 0
[12] = male, beagle, in vivo, po, 5 mg/kg/day, males, 5 mg/kg/day, Day 13
[13] = male, beagle, in vivo, po, 10 mg/kg/day, males, 10 mg/kg/day, Day 0
[14] = male, beagle, in vivo, po, 10 mg/kg/day, males, 10 mg/kg/day, Day 13
[15] = male, beagle, in vivo, po, 20 mg/kg/day, males, 20 mg/kg/day, Day 0
[16] = male, beagle, in vivo, po, 20 mg/kg/day, males, 20 mg/kg/day, Day 13
[17] = po, 3 mg/kg/day, 3 mg/kg/day, GD 6
[18] = po, 3 mg/kg/day, 3 mg/kg/day, GD 17
[19] = po, 20 mg/kg/day, 20 mg/kg/day, GD 6
[20] = po, 20 mg/kg/day, 20 mg/kg/day, GD 17

O=C1NCC2(c3ccc(Cl)c(Cl)c3)CC12 (stereo not shown) [EB-10101, 5-(3,4-dichloro-phenyl)-3-aza-bicyclo[3.1.0]hexan-2-one]
MAO-A mediation of formation (human recombinant MAO-A; human recombinant MAO-A): MAO-A mediated
EB-10101 formation rate (mean ± SD) (human recombinant MAO-A; recombinant MAO-A 1 mg/mL, EB-1010 1 μM, 30 min, underestimated (substrate limited)): 7.0 ± 2.7^b pmol/min/mg protein

Clc1ccc([C@]23CNC[C@H]2C3)cc1Cl [amitifadine, (+)-1-(3,4-dichlorophenyl)-3-azabicyclo[3.1.0]hexane]
(+) to (−) stereoisomer conversion [1]: no evidence of (+) to (−) stereoisomer conversion
NOAEL at 14 days ([1]; both sexes, beagle, in vivo, oral capsule, 14 days, read-out: NOAEL for systemic toxicity): 10 mg/kg/day
AUC(0-t) ([1]; female, beagle, in vivo, oral, 10 mg/kg/day, females, 10 mg/kg/day, Day 13, read-out: AUC0-24): 11200 ng·h/mL
Cmax [1, 6]: 1650 ng/mL
Tmax [1, 6]: 2 h
AUC(0-t) ([1]; female, beagle, in vivo, po, 5 mg/kg/day, females, 5 mg/kg/day, Day 0, read-out: AUC0-24): 5570 ng·h/mL
Cmax [1, 7]: 2040 ng/mL
Tmax [1, 7]: 1 h
AUC(0-t) ([1]; female, beagle, in vivo, po, 5 mg/kg/day, females, 5 mg/kg/day, Day 13, read-out: AUC0-24): 5610 ng·h/mL
Cmax [1, 8]: 3450 ng/mL
Tmax [1, 8]: 1 h
AUC(0-t) ([1]; female, beagle, in vivo, po, 10 mg/kg/day, females, 10 mg/kg/day, Day 0, read-out: AUC0-24): 15000 ng·h/mL
Cmax [1, 9]: 2800 ng/mL
Tmax [1, 9]: 2 h
Cmax [1, 10]: 9950 ng/mL
Tmax [1, 10]: 1 h
AUC(0-t) ([1]; female, beagle, in vivo, po, 20 mg/kg/day, females, 20 mg/kg/day, Day 0, read-out: AUC0-24): 57100 ng·h/mL
Cmax ([1]; female, beagle, in vivo, po, 20 mg/kg/day, females, 20 mg/kg/day, Day 13): 3530 ng/mL
AUC(0-t) ([1]; female, beagle, in vivo, po, 20 mg/kg/day, females, 20 mg/kg/day, Day 13, read-out: AUC0-24): 11500 ng·h/mL
AUC(0-t) ([1]; male, beagle, in vivo, oral, 10 mg/kg/day, males, 10 mg/kg/day, Day 13, read-out: AUC0-24): 3170 ng·h/mL
Cmax [1, 11]: 1580 ng/mL
Tmax [1, 11]: 1 h
AUC(0-t) ([1]; male, beagle, in vivo, po, 5 mg/kg/day, males, 5 mg/kg/day, Day 0, read-out: AUC0-24): 7360 ng·h/mL
Cmax [1, 12]: 1840 ng/mL
Tmax [1, 12]: 2 h
AUC(0-t) ([1]; male, beagle, in vivo, po, 5 mg/kg/day, males, 5 mg/kg/day, Day 13, read-out: AUC0-24): 7550 ng·h/mL
Cmax [1, 13]: 3830 ng/mL
Tmax [1, 13]: 1 h
AUC(0-t) ([1]; male, beagle, in vivo, po, 10 mg/kg/day, males, 10 mg/kg/day, Day 0, read-out: AUC0-24): 13800 ng·h/mL
Cmax [1, 14]: 1280 ng/mL
Tmax [1, 14]: 1 h
Cmax [1, 15]: 11600 ng/mL
Tmax [1, 15]: 1 h
AUC(0-t) ([1]; male, beagle, in vivo, po, 20 mg/kg/day, males, 20 mg/kg/day, Day 0, read-out: AUC0-24): 41700 ng·h/mL
Cmax [1, 16]: 9280 ng/mL
Tmax [1, 16]: 1 h
AUC(0-t) ([1]; male, beagle, in vivo, po, 20 mg/kg/day, males, 20 mg/kg/day, Day 13, read-out: AUC0-24): 32800 ng·h/mL
bacterial reverse mutation assay outcome [2]: negative in the bacterial reverse mutation assay
NOAEL at 13 days ([3]; female rats): 5 mg/kg
NOAEL at 13 days ([3]; male rats): 1.5 mg/kg
AUC(0-t) ([4]; oral, 10 mg/kg/day, 10 mg/kg/day, GD 17): 11200 ng·h/mL
Cmax [4, 17]: 387 ng/mL
AUC(0-t) [4, 17]: 2570 ng·h/mL
Cmax [4, 18]: 397 ng/mL
AUC(0-t) [4, 18]: 2620 ng·h/mL
AUC(0-t) ([4]; po, 10 mg/kg/day, 10 mg/kg/day, GD 6): 10900 ng·h/mL
Cmax ([4]; po, 10 mg/kg/day, 10 mg/kg/day, GD 17): 1300 ng/mL
Cmax [4, 19]: 1970 ng/mL
AUC(0-t) [4, 19]: 19500 ng·h/mL
Cmax [4, 20]: 1890 ng/mL
AUC(0-t) [4, 20]: 19700 ng·h/mL
Tmax ([4]; po, 3 mg/kg/day, GD 6): 2 h
Tmax ([4]; po, 10 mg/kg/day, GD 6): 2 h
Tmax ([4]; po, 20 mg/kg/day, GD 6): 2 h
NOEL for developmental toxicity ([4]; oral gavage GD 6-17): 10 mg/kg/day
maternal outcome [5]: all females in the 30 mg/kg/day group were euthanized on GD 14
